In PubChem BioAssay AID2060906 (Molecular Pharmacology Branch, DTP, NCI, 2025):
pIC50: −log10 of the molar value.

Test system: 485176-168-R4-J1-PDC complex spheroid growth
Test: Anticancer human tumor 485176-168-R4-J1-PDC patient-derived pancreatic adenocarcinoma cell line growth inhibition [RAS]
Conditions: for pIC50: curve of first compound; for viability, T/C: stronger effect = lower value
Excerpt: RAS pathway inhibitors in Combinations in Complex Spheroids
A high-throughput screen of multi-cell type tumor spheroids was designed to identify active combinations of RAS pathway inhibitors and targeted small molecules. Complex spheroids include a stromal component modeled by human endothelial cells (HUVEC) and fibroblasts modeled by human mesenchymal stem cells (MSCs). The concentration ranges selected for each drug and investigational agent were based upon clinically achievable concentrations if the clinical Cmax of the agent was known.
Compounds. The drugs and investigational agents: abemaciclib (NSC768073), cobimetinib (NSC768068), divarasib (GDC6063, NSC841802), docetaxel (NSC628503), GDC-1971 (RLY-1971, NSC841576), gemcitabine (NSC613327), inavolisib (NSC800729), ipatasertib (NSC767898), KB-0742 (NSC834161), MRTX-1133 (NSC836407), osimertinib (NSC779217), RMC-4630 (NSC839698), RMC-6236 (NSC851965), RMC-6291 (NSC852671), Ro-3306 (NSC812927), sapanisertib (NSC764658), SN-38 (NSC673596), staurosporine (NSC755774), SY5609 (NSC837396), and tovorafenib (DAY101, NSC766906), were obtained from the National Cancer Institute (NCI) Developmental Therapeutics Program Chemical Repository. The FDA-approved anticancer drug set is available from the NCI Developmental Therapeutics Program. […] The stock solutions were prepared in dimethyl sulfoxide (DMSO, Sigma-Aldrich, St. Louis, MO, cat. D2650) at 800-fold the tested concentration and stored at -70 degrees C prior to their use. All drugs and investigational agents were tested over a range starting from a high concentration at or near the clinical Cmax and decreasing in half-log increments. If the clinical Cmax for an agent had not been determined, the highest concentration tested was 10 microM.
Cell Culture. All cells were maintained in an incubator at 37 degrees C and 5% CO2 with 95% humidity. The PDC lines were cultured according to standard operating procedures established by the NCI PDMR. All PDCs were thawed and cultured in Matrigel-coated flasks prepared with a working solution of 1X Ham's F-12 nutrient mix, without supplementation (Invitrogen, Waltham, MA, cat. 11765054), 100 U/mL penicillin-streptomycin (Invitrogen, cat. 15140122), and 2.5% Matrigel (Corning Inc., Corning, NY, cat. 354248) for the first three passages. The 362531-283-R-J2-PDC and 782815-120-R-J1-PDC lines were cultured in 6C/Colon 1B media, which includes advanced DMEM/F-12 (Thermo Fisher Scientific, cat. 12634028), 10 mM HEPES (Thermo Fisher Scientific, cat. 15630080), 1X GlutaMAX supplement (Thermo Fisher Scientific, cat. 35050061), 0.1 mg/mL primocin (InvivoGen, San Diego, CA, cat. ant-pm-2), 10% defined fetal bovine serum, heat inactivated (HyClone Laboratories Inc., Logan, UT, cat. SH30070.03HI), 50% L-WRN conditioned media (ATCC, cat. CRL-3276), 1.25 mM N-Acetyl-L-cysteine (Sigma-Aldrich, cat. A9165), 10 mM nicotinamide (Sigma-Aldrich, cat. N0636), 1X B-27 supplement (Thermo Fisher Scientific, cat. 17504044), 1X N-2 supplement (Thermo Fisher Scientific, cat. 17502048), 50 ng/mL human EGF (Thermo Fisher Scientific, cat. PHG0311), and 10 microM Y-27632 dihydrochloride (Tocris Bioscience, cat. 1254). The K12877-001-R-J1-PDC line was cultured in 6I media, which includes all 6C/Colon 1B media plus 10 ng/mL human FGF-10 (PeproTech, cat. 100-26), 1 ng/mL human FGF-2 (PeproTech, cat. 100-18B), 1 µM prostaglandin E2 (Tocris Bioscience, cat. 2296), […] hydrocortisone (Sigma-Aldrich, cat. H4001), and […] bovine insulin (Sigma-Aldrich, cat. I6634). The K86415-001-R-J1-PDC line was cultured in 6D media, which includes all 6C/Colon 1B media components minus the L-WRN conditioned media. The 485176-168-R4-J1-PDC was cultured in PANC media, which includes all 6C/Colon 1B media plus 100 ng/mL human FGF-10 (PeproTech, cat. 100-26), 500 nM SB-431542 (Selleckchem, cat. S1067), and 10 nM gastrin (Tocris Bioscience, cat. 3006). […]
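Note: spheroids exposed to compounds for seven days before readout.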
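Throughout, for viability, T/C: luminescence viability expressed relative to DMSO vehicle wells set as 100%.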

`CCc1c2c(nc3ccc(O)cc13)-c1cc3c(c(=O)n1C2)COC(=O)[C@]3(O)CC` + CCn1c(-c2cc(N3CCN(C)CC3)cnc2C(C)OC)c2c3cc(ccc31)-c1csc(n1)CC(NC(=O)C1CC1C)C(=O)N1CCCC(N1)C(=O)OCC(C)(C)C2 gave a pIC50 (second compound 0.000949 µM) of 7.86, a pIC50 (second compound 0.003 µM) of 7.91 and a pIC50 (second compound 0.00949 µM) of 7.94. The pIC50 (second compound 0.03 µM) was 7.95, the pIC50 (second compound 0.0949 µM) was 7.99 and the pIC50 (second compound 0.3 µM) was 8.15. For the same molecule, the viability, T/C (second compound 0.000949 µM, first compound 0.000949 µM) was 104%, the viability, T/C (second compound 0.000949 µM, first compound 0.003 µM) was 77.5% and the viability, T/C (second compound 0.000949 µM, first compound 0.00949 µM) was 64.3%. It also gave a viability, T/C (second compound 0.000949 µM, first compound 0.03 µM) of 30.8%, a viability, T/C (second compound 0.000949 µM, first compound 0.0949 µM) of 16.6% and a viability, T/C (second compound 0.000949 µM, first compound 0.3 µM) of 9.25%. The viability, T/C (second compound 0.003 µM, first compound 0.000949 µM) was 95%, the viability, T/C (second compound 0.003 µM, first compound 0.003 µM) was 86% and the viability, T/C (second compound 0.003 µM, first compound 0.00949 µM) was 55.6%. For the same molecule, the viability, T/C (second compound 0.003 µM, first compound 0.03 µM) was 27.8%, the viability, T/C (second compound 0.003 µM, first compound 0.0949 µM) was 16.1% and the viability, T/C (second compound 0.003 µM, first compound 0.3 µM) was 9.83%. It also gave a viability, T/C (second compound 0.00949 µM, first compound 0.000949 µM) of 81.2%, a viability, T/C (second compound 0.00949 µM, first compound 0.003 µM) of 77.8% and a viability, T/C (second compound 0.00949 µM, first compound 0.00949 µM) of 50.3%. For the same molecule, the viability, T/C (second compound 0.00949 µM, first compound 0.03 µM) was 32.4%, the viability, T/C (second compound 0.00949 µM, first compound 0.0949 µM) was 16.2% and the viability, T/C (second compound 0.00949 µM, first compound 0.3 µM) was 7.59%. It also gave a viability, T/C (second compound 0.03 µM, first compound 0.000949 µM) of 70.7%, a viability, T/C (second compound 0.03 µM, first compound 0.003 µM) of 72.3% and a viability, T/C (second compound 0.03 µM, first compound 0.00949 µM) of 52.3%. It also gave a viability, T/C (second compound 0.03 µM, first compound 0.03 µM) of 28.3%, a viability, T/C (second compound 0.03 µM, first compound 0.0949 µM) of 15.9% and a viability, T/C (second compound 0.03 µM, first compound 0.3 µM) of 12%. For the same molecule, the viability, T/C (second compound 0.0949 µM, first compound 0.000949 µM) was 70.1%, the viability, T/C (second compound 0.0949 µM, first compound 0.003 µM) was 76.8% and the viability, T/C (second compound 0.0949 µM, first compound 0.00949 µM) was 45.2%. The viability, T/C (second compound 0.0949 µM, first compound 0.03 µM) was 32.5%, the viability, T/C (second compound 0.0949 µM, first compound 0.0949 µM) was 17% and the viability, T/C (second compound 0.0949 µM, first compound 0.3 µM) was 9.84%. It also gave a viability, T/C (second compound 0.3 µM, first compound 0.000949 µM) of 78.3%, a viability, T/C (second compound 0.3 µM, first compound 0.003 µM) of 62.1% and a viability, T/C (second compound 0.3 µM, first compound 0.00949 µM) of 47.3%. The viability, T/C (second compound 0.3 µM, first compound 0.03 µM) was 27.6%, the viability, T/C (second compound 0.3 µM, first compound 0.0949 µM) was 15.2% and the viability, T/C (second compound 0.3 µM, first compound 0.3 µM) was 6.04%.
In the case of `CC(C)n1nc(-c2ccc3oc(N)nc3c2)c2c(N)ncnc21`, the viability, T/C (compound 0.000316 µM) was 104% [middle of 4 runs], the viability, T/C (compound 0.001 µM) was 77.8% [middle of 4 runs] and the viability, T/C (compound 0.00316 µM) was 84.1% [middle of 4 runs]. For the same molecule, the viability, T/C (compound 0.01 µM) was 77.2% [middle of 4 runs], the viability, T/C (compound 0.0316 µM) was 49.2% [middle of 4 runs] and the viability, T/C (compound 0.1 µM) was 22.3% [middle of 4 runs]. The IC50 (curve of compound) was 31.2 nM [middle of 4 runs].
